Consider 23 compounds from PubChem BioAssay AID206 (DTP/NCI, 2004).

The test system of the test is nude mice, HT29 intrarenal xenograft, tumor weight T/C. Kind of test: NCI In Vivo Anticancer Drug Screen. Data for tumor model HT29;CX-1 Human Adenocarcinoma (MER+) (intrarenal inoculation) in NU/NU Swiss (nude) mice. The conditions noted are these: endpoint: mean tumor weight change, higher = larger tumour. The gist of the method: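 Compounds were given to mice carrying transplantable tumors; a vehicle-dosed group served as control. The endpoint measured in each group was compared as a T/C quotient.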

[1] abbreviates: dose: 75.0 mg/kg/injection, schedule: Q04DX004 (sc), vehicle: saline.
The mark [2] stands for this setting: dose: 150.0 mg/kg/injection, schedule: Q04DX004 (sc), vehicle: saline.
Where [3] appears, read: dose: 300.0 mg/kg/injection, schedule: Q04DX004 (sc), vehicle: saline.
Where [4] appears, read: dose: 150.0 mg/kg/injection, schedule: Q04DX004 (sc), vehicle: Klucel (hydroxypropylcellulose) (HPC).
[5] abbreviates: dose: 300.0 mg/kg/injection, schedule: Q04DX004 (sc), vehicle: Klucel (hydroxypropylcellulose) (HPC).
Setting [6] is: dose: 600.0 mg/kg/injection, schedule: Q04DX004 (sc), vehicle: Klucel (hydroxypropylcellulose) (HPC).
The mark [7] stands for this setting: dose: 100.0 mg/kg/injection, schedule: Q01DX010 (sc), vehicle: saline with Tween-80.
Setting [8] is: dose: 200.0 mg/kg/injection, schedule: Q01DX010 (sc), vehicle: saline with Tween-80.
Setting [9] is: dose: 1200.0 mg/kg/injection, schedule: Q04DX004 (sc), vehicle: Klucel (hydroxypropylcellulose) (HPC).
Setting [10] is: dose: 600.0 mg/kg/injection, schedule: Q04DX004 (sc), vehicle: saline.

Several values for one entry are separate records, joined by “and”; a condition that tells them apart may be missing. Equal entries are not always repeated. Results filed as inconclusive are left out.

As to `CC(/C=C/c1ccccc1)=Nc1ccccc1`, the T/C is, setting by setting: (dose: 75.0 mg/kg/injection, schedule: Q04DX004 (sc), vehicle: saline with Tween-80) 58 % of control; (dose: 150.0 mg/kg/injection, schedule: Q04DX004 (sc), vehicle: saline with Tween-80) 98 % of control; (dose: 300.0 mg/kg/injection, schedule: Q04DX004 (sc), vehicle: saline with Tween-80) 50 % of control; (dose: 600.0 mg/kg/injection, schedule: Q04DX004 (sc), vehicle: saline with Tween-80) 63 % of control.
Regarding `O=C1C(NCCO)=C(N2CC2)C(=O)C(NCCO)=C1N1CC1`, the T/C reads like this: (dose: 0.5 mg/kg/injection, schedule: Q04DX004 (sc), vehicle: saline) 76 % of control; (dose: 1.0 mg/kg/injection, schedule: Q04DX004 (sc), vehicle: saline) 12 % of control; (dose: 1.5 mg/kg/injection, schedule: Q04DX004 (sc), vehicle: saline) 86 % of control; (dose: 2.0 mg/kg/injection, schedule: Q04DX004 (sc), vehicle: saline) 21 % of control; (dose: 3.0 mg/kg/injection, schedule: Q04DX004 (sc), vehicle: saline) 82 % of control.
For the compound `Oc1cc2ccccc2c(-c2c(O)c(O)cc3ccccc23)c1O`, the T/C (dose: 225.0 mg/kg/injection, schedule: Q04DX004 (sc), vehicle: saline with Tween-80) was 101 % of control; the T/C (dose: 450.0 mg/kg/injection, schedule: Q04DX004 (sc), vehicle: saline with Tween-80) was 55 % of control; the T/C (dose: 900.0 mg/kg/injection, schedule: Q04DX004 (sc), vehicle: saline with Tween-80) is 86 % of control; the T/C (dose: 1200.0 mg/kg/injection, schedule: Q04DX004 (sc), vehicle: saline with Tween-80) is 120 % of control; the T/C (dose: 1800.0 mg/kg/injection, schedule: Q04DX004 (sc), vehicle: saline with Tween-80) is 28 % of control; the T/C (dose: 2400.0 mg/kg/injection, schedule: Q04DX004 (sc), vehicle: saline with Tween-80) was 94 % of control.
With `N#CN=[N+]([O-])c1ccc(C(=O)O)cc1`, the T/C (dose: 45.0 mg/kg/injection, schedule: Q04DX004 (sc), vehicle: Klucel (hydroxypropylcellulose) (HPC)) is 60 % of control.
For `CN(C)CC(Cl)CCl` (configuration not stated), the T/C is 101 % of control under setting [1], 117 % of control under setting [2] and 50 % of control under setting [3].
On to `O=NN(CCCl)C(=O)Oc1cc(Cl)c(Cl)cc1Cl`, for which the T/C is 94 % of control under setting [4], 83 % of control under setting [5] and 92 % of control under setting [6].
On to `CO[C@H]1Nc2c(ccc(C)c2O)C(=O)N2C=C(/C=C/C(N)=O)C[C@@H]12`, for which the T/C (dose: 0.5 mg/kg/injection, schedule: Q04DX004 (sc), vehicle: saline + alcohol) is 98 % of control and the T/C (dose: 1.0 mg/kg/injection, schedule: Q04DX004 (sc), vehicle: saline + alcohol) was 54 % of control.
For the compound `N#C[Se-].c1ccc([Te+](c2ccccc2)c2ccccc2)cc1`, the T/C runs as follows: (dose: 12.5 mg/kg/injection, schedule: Q04DX004 (sc), vehicle: Klucel (hydroxypropylcellulose) (HPC)) 64 % of control; (dose: 25.0 mg/kg/injection, schedule: Q04DX004 (sc), vehicle: Klucel (hydroxypropylcellulose) (HPC)) 44 % of control.
As for `O=C1N(Cl)C(=O)C(c2ccc(Cl)cc2)(c2ccc(Cl)cc2)N1Cl`, the T/C under setting [7] is 105 % of control and the T/C under setting [8] is 83 % of control.
`O=C(CO)c1ccc([N+](=O)[O-])cc1`: the T/C reads like this: under setting [7], 63 % of control; under setting [8], 70 % of control; (dose: 400.0 mg/kg/injection, schedule: Q01DX010 (sc), vehicle: saline with Tween-80) 122 % of control; (dose: 800.0 mg/kg/injection, schedule: Q01DX010 (sc), vehicle: saline with Tween-80) 75 % of control.
Take `O=C(Nc1ccc(C2=NCCN2)cc1)c1ccc(C(=O)Nc2ccc(C3=NCCN3)cc2)c(Cl)c1`: the T/C is, setting by setting: (dose: 12.5 mg/kg/injection, schedule: Q01DX010 (sc), vehicle: water) 101 % of control; (dose: 25.0 mg/kg/injection, schedule: Q01DX010 (sc), vehicle: water) 61 % of control; (dose: 50.0 mg/kg/injection, schedule: Q01DX010 (sc), vehicle: water) 78 % of control.
As to `Cc1c2c(ccc3ccccc32)c[n+]2ccccc12`, the T/C runs as follows: (dose: 6.25 mg/kg/injection, schedule: Q01DX010 (sc), vehicle: saline) 84 % of control; (dose: 12.5 mg/kg/injection, schedule: Q01DX010 (sc), vehicle: saline) 82 % of control.
With `CCc1ccccc1N1CCN(C(=O)c2cc(OC)c(OC)c(OC)c2)CC1`, the T/C reads like this: under setting [5], 57 % of control; under setting [6], 120 % of control; under setting [9], 84 % of control.
Regarding `CCCCCC[C@@H](O)C/C=C\CCCCCCCC(=O)OCCO`, the T/C reads like this: under setting [3], 21 % of control; under setting [10], 155 % of control; (dose: 1200.0 mg/kg/injection, schedule: Q04DX004 (sc), vehicle: saline) 169 % of control; (dose: 2400.0 mg/kg/injection, schedule: Q04DX004 (sc), vehicle: saline) 230 % of control.
Take `Cc1ccc2c(c1)N=C(Nc1ccccc1)N=S2(C)=O` (configuration not stated): the T/C is, setting by setting: (dose: 50.0 mg/kg/injection, schedule: Q04DX004 (sc), vehicle: saline with Tween-80) 48 % of control; (dose: 100.0 mg/kg/injection, schedule: Q04DX004 (sc), vehicle: saline with Tween-80) 67 % of control; (dose: 200.0 mg/kg/injection, schedule: Q04DX004 (sc), vehicle: saline with Tween-80) 66 % of control.
Turning to `O=C1CN(CN2CCOCC2)C(=O)CN1CN1CCOCC1`, the T/C reads like this: (dose: 25.0 mg/kg/injection, schedule: Q01DX010 (sc), vehicle: suspension in saline) 53 % of control; (dose: 50.0 mg/kg/injection, schedule: Q01DX010 (sc), vehicle: suspension in saline) 122 % of control; (dose: 100.0 mg/kg/injection, schedule: Q01DX010 (sc), vehicle: suspension in saline) 114 % of control; (dose: 200.0 mg/kg/injection, schedule: Q01DX010 (sc), vehicle: suspension in saline) 69 % of control.
As to `O=C1C(=O)c2ccccc2C(O)=C1CC=C(Cl)Cl`, the T/C by setting is: (dose: 100.0 mg/kg/injection, schedule: Q01DX010 (sc), vehicle: water) 183 % of control; (dose: 400.0 mg/kg/injection, schedule: Q01DX010 (sc), vehicle: water) 74 % of control and 213 % of control.
Take `Nc1nc(=S)c2[nH]cnc2[nH]1`: the T/C runs as follows: (dose: 0.39 mg/kg/injection, schedule: Q01DX010 (sc), vehicle: Klucel (hydroxypropylcellulose) (HPC)) 102 % of control; (dose: 0.78 mg/kg/injection, schedule: Q01DX010 (sc), vehicle: Klucel (hydroxypropylcellulose) (HPC)) 91 % of control.
As for `Cc1cc2nc3[nH]c4ccccc4c3nc2cc1C`, the T/C (dose: 100.0 mg/kg/injection, schedule: Q01DX010 (sc), vehicle: saline) is 46 % of control; the T/C (dose: 200.0 mg/kg/injection, schedule: Q01DX010 (sc), vehicle: saline) was 98 % of control; the T/C (dose: 400.0 mg/kg/injection, schedule: Q01DX010 (sc), vehicle: saline) was 82 % of control; the T/C (dose: 800.0 mg/kg/injection, schedule: Q01DX010 (sc), vehicle: saline) is 84 % of control.
For the compound `CC12CC(C(=O)O)C3(O)CC(C)(C1)CC(C)(C2)C3` (configuration not stated) (tested in a mixture with another compound), the T/C runs as follows: under setting [4], 48 % of control; under setting [5], 54 % of control; under setting [6], 66 % of control; under setting [9], 110 % of control.
With `[Cl][Sn]([c]1ccccc1)[c]1ccccc1`, the T/C is 59 % of control under setting [1], 67 % of control under setting [2], 63 % of control under setting [3] and 62 % of control under setting [10].
On to `CC1=C2CC(C)(C)/C=C\C(=O)/C(C)=C\C3=C[C@H](C)C[C@]3(O2)C1=O`, for which, under “dose: 50.0 mg/kg/injection, schedule: Q01DX010 (sc), vehicle: Klucel (hydroxypropylcellulose) (HPC)”, the T/C is 49 % of control.
On to `CCC12C[N+]3([O-])CCc4c([nH]c5ccccc45)C(C(=O)OC)(c4cc5c(cc4OC)N(C)C4C(O)(C(=O)OC)C(OC(C)=O)C6(CC)C=CCN7CCC54C76)CC(C3)C1O2` (configuration not stated), for which the T/C reads like this: (dose: 20.0 mg/kg/injection, schedule: Q04DX004 (sc), vehicle: water) 81 % of control; (dose: 40.0 mg/kg/injection, schedule: Q04DX004 (sc), vehicle: water) 60 % of control; (dose: 80.0 mg/kg/injection, schedule: Q04DX004 (sc), vehicle: water) 85 % of control; (dose: 160.0 mg/kg/injection, schedule: Q04DX004 (sc), vehicle: water) 71 % of control.
